{"source": "patent US20240218344A1", "about": "“LIQUID THROMBIN REAGENT” (Instrumentation Laboratory Company, priority 2022, published 2024)", "format_in_all_cases": "biochemical", "key": {"bovine thrombin [1]": {"molecular_target": "bovine thrombin (Bos taurus, UniProt P00735)", "assay": "Stability of liquid thrombin reagent with alkylated guanidine derivatives, clotting assay", "conditions": "25 mM guanidine derivative, approximately 75 U/mL bovine thrombin, MES pH 6.3, stored at 37° C. for 7 or 14 days; FIG. 5", "method": "(§1) In the clotting assay, the liquid thrombin reagent was diluted with an aqueous buffer to a final thrombin concentration of within 5 to 15 U/mL of thrombin. Then, 20 to 40 microliters (μL) of the diluted liquid thrombin reagent was mixed with 80 μL of a reaction buffer containing 20 mM HEPES, pH 7.4, containing 150 mM NaCl and 0.5% BSA (bovine serum albumin). After an incubation period of 60 to 90 seconds at 37° C., 80 μL of normal pooled plasma was added to the mixture and the time to clot was determined using a threshold algorithm.\nThe effects of guanidine derivatives were analyzed using a clotting assay. In this experiment, liquid thrombin reagents containing bovine thrombin were diluted to a final concentration of approximately 75 U/mL thrombin with an aqueous buffer comprising a MES buffer containing 20 mM MES, pH 6.3, and 0.1% ProClin™ 300, with and without 25 mM of 1-methylguanidine (MMG), 25 mM of 1.1-dimethylguanidine (DMG) and 25 mM of 1,1-diethylguanidine (DEG).\nLiquid thrombin reagents of the type described herein containing guanidine derivatives, and one without a guanidine derivative, were stored at 37° C. for 0, 7, and 14 days and tested using the clotting assay after mixing with normal pooled plasma."}, "factor Xa": {"test_system": "factor Xa", "assay": "Factor Xa chromogenic assay with guanidine and guanidine derivatives", "conditions": "dilution series in water, 6 nkat/mL factor Xa, substrate S-2732, 405 nm; FIG. 4", "method": "In this experiment, the effects of guanidine sulfate and the guanidine derivatives: 1-methylguanidine sulfate, 1,1-dimethylguanidine sulfate, 1,1-diethylguanidine, and N-benzyl, N-methylguanidine sulfate were analyzed using a chromogenic assay. A series of dilutions was prepared in water with guanidine or a guanidine derivative of the type described herein. 40 μL of each of the guanidine or guanidine derivatives were mixed for 20 to 60 seconds with 40 μL of 6 nanokatal per milliliter (nkat/mL) factor Xa diluted in 20 mM HEPES, pH 7.5 buffer. After an incubation period of 150 to 180 seconds, 100 μL of the factor Xa chromogenic substrate S-2732 (1.5 mM) was added to each of the guanidine and factor Xa mixtures and was chromogenically measured at 405 nm milli-absorbance per minute (mAbs/min) after a 20 second delay."}, "bovine thrombin [2]": {"test_system": "bovine thrombin", "assay": "Stability of liquid thrombin reagent with apixaban, clotting assay", "conditions": "500 ng/ml apixaban, approximately 100 U/mL bovine thrombin, stored at 45° C. for 0-14 days; FIG. 3", "method": "In the clotting assay, the liquid thrombin reagent was diluted with an aqueous buffer to a final thrombin concentration of within 5 to 15 U/mL of thrombin. Then, 20 to 40 microliters (μL) of the diluted liquid thrombin reagent was mixed with 80 μL of a reaction buffer containing 20 mM HEPES, pH 7.4, containing 150 mM NaCl and 0.5% BSA (bovine serum albumin). After an incubation period of 60 to 90 seconds at 37° C., 80 μL of normal pooled plasma was added to the mixture and the time to clot was determined using a threshold algorithm. In this experiment, the effects of the direct factor Xa inhibitor apixaban was analyzed using a clotting assay. Liquid thrombin reagent containing low purity grade bovine thrombin was diluted to a final concentration of approximately 100 U/mL thrombin in an aqueous buffer containing 20 mM MES, pH 6.1, 100 mM NaCl, 25 mM sodium acetate, 25 mM sodium lactate, 5 mM CaCl2, 0.5% BSA, and 0.4 g/L NaN3. Apixaban was dissolved in dimethyl sulfoxide (DMSO) and diluted to a final concentration of 500 ng/ml apixaban in a sample of the liquid thrombin reagent. Liquid thrombin reagents with and without apixaban were stored at 45° C. for 0, 2, 4, 7, 10 and 14 days, and tested in quadruplicate by the clotting assay after mixture with normal pooled plasma. […]"}, "thrombin [3]": {"test_system": "thrombin", "assay": "Alkylated guanidine concentrations for thrombin stability, clotting assay", "conditions": "less than 20 mM DMG, 7 U/mL thrombin, 37° C. for 20 days versus 2 to 8° C.; FIG. 6", "method": "as §1\nA series of liquid thrombin reagents containing dimethylguanidine (DMG) were analyzed using a clotting assay. A series of liquid thrombin reagents containing 7 U/mL liquid thrombin were prepared in an aqueous buffer containing 20 mM MES, pH 6.3, 0.1% ProClin™ 300, and a final concentration of 5, 10, 15, 20, 25, or 30 mM DMG. The resulting liquid thrombin reagents were stored at 37° C for 20 days, and the remaining thrombin activity was compared to the liquid thrombin reagent containing the same concentration of guanidine derivative stored at 2 to 8° C. for 20 days."}, "thrombin [4]": {"test_system": "thrombin", "assay": "Thrombin concentrations for liquid thrombin reagent stability, clotting assay", "conditions": "30 mM DMG, 37° C. for 7 days, FIG. 7", "method": "as §1\nThe effect of guanidine derivatives on a series of thrombin concentrations were analyzed using a clotting assay. A series of liquid thrombin reagents containing 30 mM DMG were prepared by diluting a 100 U/mL thrombin liquid thrombin reagent in MES buffer (containing 30 mM DMG, 20 mM MES, pH 6.3, and 0.1% ProClin™ 300) with MES buffer to final concentrations of 70, 56, 42, 28, 14 or 7 U/mL thrombin. The liquid thrombin reagents were stored at 37° C. for 7 days and tested for thrombin activity using the clotting assay."}}, "note": "Structures can show the parent of a compound that is named as a salt.", "data": [{"smiles": "CNC(=N)N.O=S(=O)(O)O", "note": "[1,1 methylguanidine sulfate, 1-methylguanidine sulfate]", "values": [{"measurement": "thrombin activity after storage", "setting": "bovine thrombin [1]", "value": "little or no decrease in thrombin activity"}]}, {"smiles": "CN(Cc1ccccc1)C(=N)N.O=S(=O)(O)O", "note": "[N-benzyl N-methylguanidine sulfate, N-benzyl, N-methylguanidine sulfate]", "values": [{"measurement": "factor Xa inhibition", "setting": "factor Xa", "value": "reduced factor Xa inhibition"}]}, {"smiles": "COc1ccc(-n2nc(C(N)=O)c3c2C(=O)N(c2ccc(N4CCCCC4=O)cc2)CC3)cc1", "note": "[apixaban]", "values": [{"measurement": "stability of the liquid thrombin reagent (time-to-clot versus reagent without apixaban)", "setting": "bovine thrombin [2]", "value": "improves the stability of the liquid thrombin reagent in the long term"}]}, {"smiles": "CCN(CC)C(=N)N", "note": "[diethylguanidine sulfate, 1,1-diethylguanidine]", "values": [{"measurement": "thrombin activity after storage", "setting": "bovine thrombin [1]", "value": "little or no decrease in thrombin activity"}, {"measurement": "factor Xa inhibition", "setting": "factor Xa", "value": "largest extent of factor Xa inhibition"}]}, {"smiles": "CN(C)C(=N)N.O=S(=O)(O)O", "note": "[dimethylguanidine sulfate, 1,1-dimethylguanidine sulfate]", "values": [{"measurement": "thrombin activity after storage", "setting": "bovine thrombin [1]", "value": "little or no decrease in thrombin activity"}, {"measurement": "remaining thrombin activity", "setting": "thrombin [3]", "value": "declined"}, {"measurement": "remaining thrombin activity", "setting": "thrombin [4]; less than about 20 U/mL thrombin", "value": "declined"}, {"measurement": "remaining thrombin activity", "setting": "thrombin [4]; more than about 20 U/mL thrombin", "value": "did not decline significantly"}, {"measurement": "factor Xa inhibition", "setting": "factor Xa", "value": "largest extent of factor Xa inhibition"}]}, {"smiles": "N=C(N)N.N=C(N)N.O=S(=O)(O)O", "note": "[guanidine sulfate, reference compound]", "values": [{"measurement": "factor Xa inhibition", "setting": "factor Xa", "value": "least reduction in factor Xa inhibition"}]}]}
